Where no end group is shown, it is not given here.
How the values were obtained:
H2009 cells [1] = target: T1, H2009 cells (Homo sapiens, UniProt P06756+P18564); test: Peptide blocking of cognate H2009.1 phage uptake on H2009 cells; assay type: cell-based; details: Fig. 2B, 2D, Supplementary Data
H2009 cells [2] = target: T1, H2009 cells; test: Cellular uptake of labeled peptide by confocal/fluorescence microscopy; assay type: cell-based; details: for cellular uptake of peptide-Qdot conjugate (fluorescent/confocal microscopy): 20 nmol/L SAQdot605 conjugate, 10 min incubation
αvβ6 = details: cited from earlier work
in vivo = details: SCID, mouse, iv, 5 uCi, total radioactivity

T1 sequence (P06756 31-1048): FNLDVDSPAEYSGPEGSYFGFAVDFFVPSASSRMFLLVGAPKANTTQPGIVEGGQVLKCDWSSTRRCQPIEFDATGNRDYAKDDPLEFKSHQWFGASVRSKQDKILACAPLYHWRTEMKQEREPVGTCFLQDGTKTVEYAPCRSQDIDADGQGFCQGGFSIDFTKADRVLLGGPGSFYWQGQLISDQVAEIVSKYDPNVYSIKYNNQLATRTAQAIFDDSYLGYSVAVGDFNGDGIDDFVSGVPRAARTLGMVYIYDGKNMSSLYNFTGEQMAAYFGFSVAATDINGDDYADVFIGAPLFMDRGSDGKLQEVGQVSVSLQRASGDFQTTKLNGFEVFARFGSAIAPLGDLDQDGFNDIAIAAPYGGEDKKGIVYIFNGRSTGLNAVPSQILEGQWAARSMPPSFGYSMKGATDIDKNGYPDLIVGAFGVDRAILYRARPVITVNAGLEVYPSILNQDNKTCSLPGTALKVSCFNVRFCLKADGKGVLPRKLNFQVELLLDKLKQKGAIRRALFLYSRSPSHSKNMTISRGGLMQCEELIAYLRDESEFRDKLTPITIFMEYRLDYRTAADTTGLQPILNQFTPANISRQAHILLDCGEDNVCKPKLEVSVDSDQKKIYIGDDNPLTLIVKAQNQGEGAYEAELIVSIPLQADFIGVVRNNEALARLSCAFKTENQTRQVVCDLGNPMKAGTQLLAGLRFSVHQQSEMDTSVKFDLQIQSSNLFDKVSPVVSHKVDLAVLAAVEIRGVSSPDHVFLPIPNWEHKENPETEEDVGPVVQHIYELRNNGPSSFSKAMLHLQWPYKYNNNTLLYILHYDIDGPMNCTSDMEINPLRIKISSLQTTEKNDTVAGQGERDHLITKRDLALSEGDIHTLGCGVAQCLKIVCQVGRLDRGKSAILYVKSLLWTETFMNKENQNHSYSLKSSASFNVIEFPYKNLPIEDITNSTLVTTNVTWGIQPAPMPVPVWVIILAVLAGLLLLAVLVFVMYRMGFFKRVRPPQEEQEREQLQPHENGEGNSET
T1 sequence (P18564 22-788): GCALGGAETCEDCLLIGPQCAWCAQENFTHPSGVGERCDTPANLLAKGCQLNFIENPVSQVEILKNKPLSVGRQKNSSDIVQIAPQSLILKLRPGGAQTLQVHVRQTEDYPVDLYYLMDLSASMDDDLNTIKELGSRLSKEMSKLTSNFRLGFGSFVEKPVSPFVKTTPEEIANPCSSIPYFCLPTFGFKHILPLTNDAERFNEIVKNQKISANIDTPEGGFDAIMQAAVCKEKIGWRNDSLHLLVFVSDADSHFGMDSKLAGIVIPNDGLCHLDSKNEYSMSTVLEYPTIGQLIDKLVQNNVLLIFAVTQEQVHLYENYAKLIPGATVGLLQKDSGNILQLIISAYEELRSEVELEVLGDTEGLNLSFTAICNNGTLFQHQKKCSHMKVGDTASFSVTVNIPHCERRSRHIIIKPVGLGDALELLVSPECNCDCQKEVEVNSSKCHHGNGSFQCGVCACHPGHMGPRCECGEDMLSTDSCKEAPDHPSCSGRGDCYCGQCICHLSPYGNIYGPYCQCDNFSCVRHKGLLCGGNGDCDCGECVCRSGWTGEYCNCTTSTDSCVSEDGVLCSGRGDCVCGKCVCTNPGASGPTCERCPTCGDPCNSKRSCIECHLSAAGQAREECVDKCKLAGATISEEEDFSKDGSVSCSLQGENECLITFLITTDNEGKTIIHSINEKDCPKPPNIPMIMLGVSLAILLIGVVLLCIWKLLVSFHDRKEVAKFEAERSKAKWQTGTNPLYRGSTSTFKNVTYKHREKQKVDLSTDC

ability to block phage uptake / binding affinity for H2009 cells (in words) (H2009 cells [1]) | cellular uptake of peptide-Qdot conjugate (fluorescent/confocal microscopy) (H2009 cells [2]) | Compound | other results
significantly reduced affinity |  | RGDLATLRQL-OH | 
 | no uptake | YAAWPASGAWTGTAPC-SAGT [H1299.2-Qdot conjugate] | localization of β6 integrin after treatment with peptide-Qdot conjugate (H2009 cells [2]; 10-min incubation, fixed, permeabilized, stained for β6): β6 remains localized on the cell surface
retains full activity |  | RGDLATL [H2009.1 7-mer peptide] | 
 |  | GFTTGRRGDLATIHGMNPF [A20LAP] | affinity for αvβ6 (αvβ6): low nanomolar range
 |  | CC(C)C[C@H](NC(=O)[C@H](CCC(N)=O)NC(=O)[C@H](CCCNC(=N)N)NC(=O)[C@H](CC(C)C)NC(=O)[C@@H](NC(=O)[C@H](C)NC(=O)[C@H](CC(C)C)NC(=O)[C@H](CC(=O)O)NC(=O)CNC(=O)[C@@H](N)CCCNC(=N)N)[C@@H](C)O)C(=O)NCCOCCOCCOCCOCCOCCOCCOCCOCCOCCOCCOCCOCCC(=O)N[C@@H](CSC1CC(=O)N(CCC(=O)NCCCC[C@H](NC(=O)CCN2C(=O)CC(SC[C@H](NC(=O)CCOCCOCCOCCOCCOCCOCCOCCOCCOCCOCCOCCOCCNC(=O)[C@H](CC(C)C)NC(=O)[C@H](CCC(N)=O)NC(=O)[C@H](CCCNC(=N)N)NC(=O)[C@H](CC(C)C)NC(=O)[C@@H](NC(=O)[C@H](C)NC(=O)[C@H](CC(C)C)NC(=O)[C@H](CC(=O)O)NC(=O)CNC(=O)[C@@H](N)CCCNC(=N)N)[C@@H](C)O)C(N)=O)C2=O)C(=O)NCCCC[C@H](NC(=O)[C@H](CCCCNC(=O)CCN2C(=O)CC(SC[C@H](NC(=O)CCOCCOCCOCCOCCOCCOCCOCCOCCOCCOCCOCCOCCNC(=O)[C@H](CC(C)C)NC(=O)[C@H](CCC(N)=O)NC(=O)[C@H](CCCNC(=N)N)NC(=O)[C@H](CC(C)C)NC(=O)[C@@H](NC(=O)[C@H](C)NC(=O)[C@H](CC(C)C)NC(=O)[C@H](CC(=O)O)NC(=O)CNC(=O)[C@@H](N)CCCNC(=N)N)[C@@H](C)O)C(N)=O)C2=O)NC(=O)CCN2C(=O)CC(SC[C@H](NC(=O)CCOCCOCCOCCOCCOCCOCCOCCOCCOCCOCCOCCOCCNC(=O)[C@H](CC(C)C)NC(=O)[C@H](CCC(N)=O)NC(=O)[C@H](CCCNC(=N)N)NC(=O)[C@H](CC(C)C)NC(=O)[C@@H](NC(=O)[C@H](C)NC(=O)[C@H](CC(C)C)NC(=O)[C@H](CC(=O)O)NC(=O)CNC(=O)[C@@H](N)CCCNC(=N)N)[C@@H](C)O)C(N)=O)C2=O)C(=O)N[C@@H](CSC2CC(=O)N(CCNC(=O)CN3CCN(CC(=O)O)CCN(CC(=O)O)CCN(CC(=O)O)CC3)C2=O)C(=O)NCCC(=O)O)C1=O)C(N)=O (stereo partly shown) [111In-labeled H2009.1 peptide, metal not drawn] | tissue uptake at 4 h (in vivo): 0.84 ± 0.11 %ID/g
 | No uptake | DALRLQGTLR [scrambled H2009.1 peptide] | 
